Columns and labels:
Test in all cases: Fluorescence Polarization Assay
Galectin-7 = Galectin-7 (Homo sapiens, UniProt P47929)
Description: (§1) In fluorescence polarization measurements, a fluorescent probe was excited with plane-polarized light and the degree of polarization remaining in the emitted light is measured. When the probe is bound to protein, it rotates slower than when free, and the remaining fluorescence polarization is higher. The fluorescent anisotropy value for a probe-protein mixture is the average of the value for bound and free probe. For the direct binding asaay, the data (anisotropy, A in mA vs galectin concentration, [G] in uM) were fitted to a simplified formula to obtain Kd.

Galectin-3 = Galectin-3 (Homo sapiens, UniProt P17931); conditions: pH 7.2; 24 °C
Sequence of Galectin-3 (P17931 whole entry): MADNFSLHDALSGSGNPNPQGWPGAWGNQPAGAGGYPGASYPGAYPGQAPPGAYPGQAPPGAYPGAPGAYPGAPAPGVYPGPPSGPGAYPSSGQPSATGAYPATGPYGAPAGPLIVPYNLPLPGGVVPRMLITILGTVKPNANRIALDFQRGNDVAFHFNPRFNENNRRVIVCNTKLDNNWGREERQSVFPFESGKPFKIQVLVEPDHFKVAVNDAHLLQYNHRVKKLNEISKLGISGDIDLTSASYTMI
Description: as §1

Galectin-9 = Galectin-9 (Homo sapiens, UniProt O00182)
Sequence of Galectin-9 (O00182 whole entry): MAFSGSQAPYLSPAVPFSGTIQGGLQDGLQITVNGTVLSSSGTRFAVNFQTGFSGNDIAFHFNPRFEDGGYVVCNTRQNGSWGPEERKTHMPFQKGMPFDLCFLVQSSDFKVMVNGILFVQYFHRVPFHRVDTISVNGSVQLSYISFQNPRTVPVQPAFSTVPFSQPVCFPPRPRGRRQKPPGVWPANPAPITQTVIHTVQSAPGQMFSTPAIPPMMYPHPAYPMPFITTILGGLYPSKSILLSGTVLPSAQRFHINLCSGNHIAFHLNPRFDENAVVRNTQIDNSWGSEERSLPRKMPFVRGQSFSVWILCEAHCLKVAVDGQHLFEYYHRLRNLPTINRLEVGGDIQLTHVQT
Description: as §1

Galectin-1 = Galectin-1 (Homo sapiens, UniProt P09382); conditions: pH 7.2; 24 °C
Sequence of Galectin-1 (P09382 whole entry): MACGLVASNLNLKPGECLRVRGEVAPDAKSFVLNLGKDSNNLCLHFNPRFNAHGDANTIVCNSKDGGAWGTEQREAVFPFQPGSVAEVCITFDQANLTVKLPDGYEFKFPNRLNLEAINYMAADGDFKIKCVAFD
Description: as §1

Galectin-8 = biological target: T1, Galectin-8 (Homo sapiens, UniProt O00214)
T1 sequence (O00214 whole entry): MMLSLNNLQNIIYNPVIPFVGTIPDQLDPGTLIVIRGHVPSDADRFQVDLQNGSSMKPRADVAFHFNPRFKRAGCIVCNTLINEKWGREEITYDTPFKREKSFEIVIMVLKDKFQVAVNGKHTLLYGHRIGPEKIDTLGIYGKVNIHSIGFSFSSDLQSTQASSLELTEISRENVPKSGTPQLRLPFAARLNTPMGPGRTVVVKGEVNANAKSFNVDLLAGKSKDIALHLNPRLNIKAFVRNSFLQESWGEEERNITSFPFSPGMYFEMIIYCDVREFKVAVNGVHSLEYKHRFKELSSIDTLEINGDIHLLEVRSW
Description: as §1

Sequence of Galectin-7 (P47929 whole entry): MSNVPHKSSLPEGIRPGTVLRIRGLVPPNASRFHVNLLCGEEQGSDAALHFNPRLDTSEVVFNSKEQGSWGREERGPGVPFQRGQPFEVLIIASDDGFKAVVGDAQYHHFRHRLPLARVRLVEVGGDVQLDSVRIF

Row | Structure (SMILES) | Kd (Galectin-7) [µM] | Kd (Galectin-3) [µM] | Kd (Galectin-9) [µM] | Kd (Galectin-1) [µM] | Kd (Galectin-8) [µM]
1 | CO[C@@H]1O[C@H](CO)[C@@H](O[C@@H]2O[C@H](CO)[C@H](O)[C@H](NC(=S)NCc3cccnc3)[C@H]2O)[C@H](O)[C@H]1NC(C)=O [N-[(2R,3R,4R,5S,6R)-5-{[(2S,3R,4S,5R,6R)-3,5-dihydroxy-6-(hydroxymethyl)-4-{[(pyridin-3-ylmethyl)carbamothioyl]amino}oxan-2-yl]oxy}-4-hydroxy-6-(hydroxymethyl)-2-methoxyoxan-3-yl]acetamide] | 23 | 35 | 47 | 43 | 
2 | CO[C@@H]1O[C@H](CO)[C@@H](O[C@@H]2O[C@H](CO)[C@H](O)[C@H](NC(=S)NC3CCCCC3)[C@H]2O)[C@H](O)[C@H]1NC(C)=O [N-[(2R,3R,4R,5S,6R)-5-{[(2S,3R,4S,5R,6R)-4-[(cyclohexylcarbamothioyl)amino]-3,5-dihydroxy-6-(hydroxymethyl)oxan-2-yl]oxy}-4-hydroxy-6-(hydroxymethyl)-2-methoxyoxan-3-yl]acetamide] | 24 | 57 | 80 | 40 | 650
3 | C=CCNC(=S)N[C@H]1[C@@H](O)[C@@H](CO)O[C@@H](O[C@H]2[C@H](O)[C@@H](NC(C)=O)[C@H](OC)O[C@@H]2CO)[C@@H]1O [N-[(2R,3R,4R,5S,6R)-5-{[(2S,3R,4S,5R,6R)-3,5-dihydroxy-6-(hydroxymethyl)-4-[(prop-2-en-1-ylcarbamothioyl)amino]oxan-2-yl]oxy}-4-hydroxy-6-(hydroxymethyl)-2-methoxyoxan-3-yl]acetamide] | 100 | 52 | 97 | 34 | > 3000
4 | CO[C@@H]1O[C@H](CO)[C@@H](O[C@@H]2O[C@H](CO)[C@H](O)[C@H](NC(=S)N[C@H]3[C@@H](O)[C@@H](CO)O[C@@H](O[C@H]4[C@H](O)[C@@H](NC(C)=O)[C@H](OC)O[C@@H]4CO)[C@@H]3O)[C@H]2O)[C@H](O)[C@H]1NC(C)=O [N-[(2R,3R,4R,5S,6R)-5-{[(2S,3R,4S,5R,6R)-4-({[(2S,3R,4S,5R,6R)-2-{[(2R,3S,4R,5R,6R)-5-acetamido-4-hydroxy-2-(hydroxymethyl)-6-methoxyoxan-3-yl]oxy}-3,5-dihydroxy-6-(hydroxymethyl)oxan-4-yl]carbamothioyl}amino)-3,5-dihydroxy-6-(hydroxymethyl)oxan-2-yl]oxy}-4-hydroxy-6-(hydroxymethyl)-2-methoxyoxan-3-yl]acetamide] | 170 | 160 | 240 | 58 | > 3000
5 | CO[C@@H]1O[C@H](CO)[C@@H](O[C@@H]2O[C@H](CO)[C@H](O)[C@H](NC(=S)NCc3ccccc3)[C@H]2O)[C@H](O)[C@H]1NC(C)=O [N-[(2R,3R,4R,5S,6R)-5-{[(2S,3R,4S,5R,6R)-4-[(benzylcarbamothioyl)amino]-3,5-dihydroxy-6-(hydroxymethyl)oxan-2-yl]oxy}-4-hydroxy-6-(hydroxymethyl)-2-methoxyoxan-3-yl]acetamide] |  | 15 |  | 35 | 
6 | CCCCNC(=S)N[C@H]1[C@@H](O)[C@@H](CO)O[C@@H](O[C@H]2[C@H](O)[C@@H](NC(C)=O)[C@H](OC)O[C@@H]2CO)[C@@H]1O [N-[(2R,3R,4R,5S,6R)-5-{[(2S,3R,4S,5R,6R)-4-[(butylcarbamothioyl)amino]-3,5-dihydroxy-6-(hydroxymethyl)oxan-2-yl]oxy}-4-hydroxy-6-(hydroxymethyl)-2-methoxyoxan-3-yl]acetamide] | 130 | 23 | 69 | 23 | > 3000
7 | CO[C@@H]1O[C@H](CO)[C@@H](O[C@@H]2O[C@H](CO)[C@H](O)[C@H](NC(=S)N3CCOCC3)[C@H]2O)[C@H](O)[C@H]1NC(C)=O [N-[(2R,3R,4R,5S,6R)-5-{[(2S,3R,4S,5R,6R)-3,5-dihydroxy-6-(hydroxymethyl)-4-[(morpholin-4-ylmethanethioyl)amino]oxan-2-yl]oxy}-4-hydroxy-6-(hydroxymethyl)-2-methoxyoxan-3-yl]acetamide] |  | 69 |  | 160 | 
8 | CO[C@@H]1O[C@H](CO)[C@@H](O[C@@H]2O[C@H](CO)[C@H](O)[C@H](NC(=S)NCCCO)[C@H]2O)[C@H](O)[C@H]1NC(C)=O [N-[(2R,3R,4R,5S,6R)-5-{[(2S,3R,4S,5R,6R)-3,5-dihydroxy-6-(hydroxymethyl)-4-{[(3-hydroxypropyl)carbamothioyl]amino}oxan-2-yl]oxy}-4-hydroxy-6-(hydroxymethyl)-2-methoxyoxan-3-yl]acetamide] | 150 | 65 | 92 | 23 | > 3000
9 | CNC(=S)N[C@H]1[C@@H](O)[C@@H](CO)O[C@@H](O[C@H]2[C@H](O)[C@@H](NC(C)=O)[C@H](OC)O[C@@H]2CO)[C@@H]1O [N-[(2R,3R,4R,5S,6R)-5-{[(2S,3R,4S,5R,6R)-3,5-dihydroxy-6-(hydroxymethyl)-4-[(methylcarbamothioyl)amino]oxan-2-yl]oxy}-4-hydroxy-6-(hydroxymethyl)-2-methoxyoxan-3-yl]acetamide] | 65 | 38 | 110 | 49 | > 3000
10 | CO[C@@H]1O[C@H](CO)[C@@H](O[C@@H]2O[C@H](CO)[C@H](O)[C@H](NC(N)=S)[C@H]2O)[C@H](O)[C@H]1NC(C)=O [N-[(2R,3R,4R,5S,6R)-5-{[(2S,3R,4S,5R,6R)-4-(carbamothioylamino)-3,5-dihydroxy-6-(hydroxymethyl)oxan-2-yl]oxy}-4-hydroxy-6-(hydroxymethyl)-2-methoxyoxan-3-yl]acetamide] | 170 | 65 | 76 | 43 | > 3000
11 | CO[C@@H]1O[C@H](CO)[C@@H](O[C@@H]2O[C@H](CO)[C@H](O)[C@H](NC(=S)NCCO)[C@H]2O)[C@H](O)[C@H]1NC(C)=O [N-[(2R,3R,4R,5S,6R)-5-{[(2S,3R,4S,5R,6R)-3,5-dihydroxy-4-{[(2-hydroxyethyl)carbamothioyl]amino}-6-(hydroxymethyl)oxan-2-yl]oxy}-4-hydroxy-6-(hydroxymethyl)-2-methoxyoxan-3-yl]acetamide] | 130 | 74 | 120 | 49 | 500
12 | CO[C@@H]1O[C@H](CO)[C@@H](O[C@@H]2O[C@H](CO)[C@H](O)[C@H](NC(=S)Nc3ccccc3)[C@H]2O)[C@H](O)[C@H]1NC(C)=O [N-[(2R,3R,4R,5S,6R)-5-{[(2S,3R,4S,5R,6R)-3,5-dihydroxy-6-(hydroxymethyl)-4-[(phenylcarbamothioyl)amino]oxan-2-yl]oxy}-4-hydroxy-6-(hydroxymethyl)-2-methoxyoxan-3-yl]acetamide] | 110 | 40 | 100 | 45 | > 3000
13 | CO[C@@H]1O[C@H](CO)[C@@H](O[C@@H]2O[C@H](CO)[C@H](O)[C@H](O)[C@H]2O)[C@H](O)[C@H]1NC(C)=O [N-[(2R,3R,4R,5S,6R)-4-hydroxy-6-(hydroxymethyl)-2-methoxy-5-{[(2S,3R,4S,5R,6R)-3,4,5-trihydroxy-6-(hydroxymethyl)oxan-2-yl]oxy}oxan-3-yl]acetamide] | 490 | 67 | 500 | 70 | 700
14 | CCN(CC)C(=S)N[C@H]1[C@@H](O)[C@@H](CO)O[C@@H](O[C@H]2[C@H](O)[C@@H](NC(C)=O)[C@H](OC)O[C@@H]2CO)[C@@H]1O [N-[(2R,3R,4R,5S,6R)-5-{[(2S,3R,4S,5R,6R)-4-[(diethylcarbamothioyl)amino]-3,5-dihydroxy-6-(hydroxymethyl)oxan-2-yl]oxy}-4-hydroxy-6-(hydroxymethyl)-2-methoxyoxan-3-yl]acetamide] | 180 | 43 | 280 | 46 | > 3000

Source: BindingDB's records for doi:10.1016/j.bmc.2005.09.050 (Lund University, 2006)
